One series has as its target T1, human CRF receptor (Homo sapiens, UniProt P34998).
T1 construct: expressed in transfected cells; host or cells: CHO cells (membrane fraction)
T1 sequence (P34998 24-415): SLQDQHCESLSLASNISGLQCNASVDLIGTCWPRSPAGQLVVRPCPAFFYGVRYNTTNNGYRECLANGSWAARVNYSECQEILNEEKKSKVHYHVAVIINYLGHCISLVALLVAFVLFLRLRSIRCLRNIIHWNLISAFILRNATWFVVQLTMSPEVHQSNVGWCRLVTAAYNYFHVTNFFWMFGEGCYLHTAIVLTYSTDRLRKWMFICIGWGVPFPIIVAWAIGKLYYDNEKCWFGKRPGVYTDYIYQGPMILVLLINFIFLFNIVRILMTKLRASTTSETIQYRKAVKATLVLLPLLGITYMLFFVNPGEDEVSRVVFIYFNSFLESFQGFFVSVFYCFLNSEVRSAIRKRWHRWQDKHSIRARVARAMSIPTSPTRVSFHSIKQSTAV
Briefly: Corticotropin-releasing factor (CRF) receptor binding experiment with 125I-CRF. As to conditions: human CRF receptor expressing CHO cellular membrane fraction; for inhibition at 1 µM: 1000 nM test compound, 50 pM 125I-CRF, read-out: Binding inhibitory rate (%) 1000 nM; for IC50: 125I-CRF, GraphPad Prism. The method, then: A receptor binding experiment was carried out using a human CRF receptor expressing CHO cellular membrane fraction and ovine CRF, [^125I]-tyr^0 (^125I-CRF). 1000 nM of a test compound was incubated with 1 μg of human CRF receptor expressing CHO cellular membrane fraction and 50 pM of ^125I-CRF in a binding assay buffer (50 mM Tris-HCl, 5 mM EDTA, 10 mM MgCl2, 0.05% CHAPS, 0.1% BSA, 0.5 mM PMSF, 0.1 μg/ml pepstatin, 20 μg/ml leupeptin, pH 7.5). In addition, for measuring nonspecific binding (NSB), 0.1 μM unlabelled human Urocortin was incubated with 1 μg of human CRF receptor expressing CHO cellular membrane fraction and 50 pM of ^125I-CRF in a binding assay buffer. After a binding reaction was carried out at room temperature for 1.5 hour, the membrane was entrapped on a glass filter (UniFilter plate GF-C/Perkin Elmer) by suction filtration using a cell harvester (Perkin Elmer), and washed with ice-cooled 50 mM Tris-HCl (pH 7.5). After drying the glass filter, a liquid scintillation cocktail (Microscinti 0, Perkin Elmer) was added, and the radioactivity of ^125I-CRF remaining on a glass filter was measured using Topcount (Perkin Elmer).
(TB−SB)/(TB−NSB)×100 (SB: radioactivity when a compound is added, TB: maximum binding radioactivity, NSB: nonspecific binding radioactivity) was calculated to obtain a binding inhibitory rate under the presence of 1,000 nM of each test substances. The IC50 values were calculated by using GraphPad Prism software.

The structures appear in SMILES notation. Counter-ions that a name gives are not always drawn.

Consider `CNCc1ccccc1-c1cccc2nc(Nc3c(C)cc(Cl)cc3OC)n(C)c12` [Example 64, N-(4-Chloro-2-methoxy-6-methylphenyl)-1-methyl-7-{2-[(methylamino)methyl]phenyl}-1H-benzimidazol-2-amine], for which the inhibition at 1 µM on human CRF receptor is greater than 80%.
In the case of `CCC(CC)c1ccc(C)c2nc(Nc3c(C)cc(Cl)cc3OC)n(C)c12` [Example 101, N-(4-Chloro-2-methoxy-6-methylphenyl)-7-(1-ethylpropyl)-1,4-dimethyl-1H-benzimidazol-2-amine], at human CRF receptor, the inhibition at 1 µM was greater than 80% and the IC50 is less than 10 nM.
`CCCC(CCC)c1cccc2nc(Nc3c(C)cc(Br)cc3OC)n(C)c12` [Example 1, N-(4-Bromo-2-methoxy-6-methylphenyl)-1-methyl-7-(1-propylbutyl)-1H-benzimidazol-2-amine Hydrochloride]: at human CRF receptor, the inhibition at 1 µM is greater than 80%.
For the compound `CCc1ccccc1-c1cccc2nc(Nc3c(C)cc(Cl)cc3OC)n(C)c12` [Example 15, N-(4-Chloro-2-methoxy-6-methylphenyl)-7-(2-ethylphenyl)-1-methyl-1H-benzimidazol-2-amine], at human CRF receptor, the IC50 fell in the range of 10 to 50 nM.
On to `CCC(CC)c1ccc(Cl)c2nc(Nc3c(C)cc(Cl)cc3OC)n(CCO)c12` [Example 103, 2-[4-Chloro-2-[(4-chloro-2-methoxy-6-methylphenyl)amino]-7-(1-ethylpropyl)-1H-benzimidazol-1-yl]ethanol], for which, on human CRF receptor, the inhibition at 1 µM is greater than 80%.
`CCc1cc(CC)n(-c2cccc3nc(Nc4c(C)cc(Br)cc4OC)n(C)c23)n1` [Example 66, N-(4-Bromo-2-methoxy-6-methylphenyl)-7-(3,5-diethyl-1H-pyrazol-1-yl)-1-methyl-1H-benzimidazol-2-amine] came in with an IC50 at human CRF receptor of 10 to 50 nM.
`CCCC(CC)c1nccc2nc(Nc3c(C)cc(Br)cc3OC)n(C)c12` (centres unmarked) [Example 9, N-(4-Bromo-2-methoxy-6-methylphenyl)-4-(1-ethylbutyl)-3-methyl-3H-imidazo[4,5-c]pyridin-2-amine]: the inhibition at 1 µM at human CRF receptor is greater than 80%.
Compound `CCC(CC)c1ccc(Cl)c2nc(Nc3c(C)cc(Br)cc3OC)n(C)c12` [Example 77, N-(4-Bromo-2-methoxy-6-methylphenyl)-4-chloro-7-(1-ethylpropyl)-1-methyl-1H-benzimidazol-2-amine] gave a melting point of 218 to 220 °C. For the same compound, on human CRF receptor, the inhibition at 1 µM is greater than 80% and the concentration for half-maximal inhibition (IC50) was 10 to 50 nM.
With `CCC(CC)c1ccc(OC)c2nc(Oc3c(C)cc(Cl)cc3Cl)n(C)c12` [Example 145, 2-(2,4-Dichloro-6-methylphenoxy)-7-(1-ethylpropyl)-4-methoxy-1-methyl-1H-benzimidazole], the melting point is 130 to 131 °C. On human CRF receptor, this compound came in with an IC50 of less than 10 nM.
Regarding `CCCC(CCC)c1ccc(Cl)c2nc(Oc3c(C)cc(Cl)cc3C)n(C)c12` [Example 130, 4-Chloro-2-(4-chloro-2,6-dimethylphenoxy)-1-methyl-7-(1-propylbutyl)-1H-benzimidazole], the melting point lay in the range of 160 to 162 °C.
The compound `CCCC(CCC)c1ccc(Cl)c2nc(Nc3cc(C(F)(F)F)c(OC)cc3OC)n(C)c12` [Example 123, 4-Chloro-N-[2,4-dimethoxy-5-(trifluoromethyl)phenyl]-1-methyl-7-(1-propylbutyl)-1H-benzimidazol-2-amine] gave a melting point of 196 to 198 °C.
With `CCC(CC)c1ccc(Cl)c2nc(Nc3ccc(Cl)cc3Br)n(C)c12` [Example 84, N-(2-Bromo-4-chlorophenyl)-4-chloro-7-(1-ethylpropyl)-1-methyl-1H-benzimidazol-2-amine], the melting point is 136 to 138 °C. Further, the inhibition at 1 µM on human CRF receptor was greater than 80%.
Compound `CCC(CC)c1ccc(Cl)c2nc(Oc3c(C)cc(Br)cc3C)n(C)c12` [Example 137, 2-(4-Bromo-2,6-dimethylphenoxy)-4-chloro-7-(1-ethylpropyl)-1-methyl-1H-benzimidazole] registered a melting point of 197 to 198 °C.
`CCCC(O)(CCC)c1cccc2nc(Nc3c(C)cc(C)cc3C)n(CCO)c12` [Example 73, 4-[1-(2-Hydroxyethyl)-2-(mesitylamino)-1H-benzimidazol-7-yl]heptan-4-ol] gave a melting point of 267 to 270 °C.
On the same count and under the same terms, for `CCC(CC)c1ccc(Cl)c2nc(Oc3c(OC)cc(C)cc3OC)n(C)c12` [Example 126, 4-Chloro-2-(2,6-dimethoxy-4-methylphenoxy)-7-(1-ethylpropyl)-1-methyl-1H-benzimidazole] the value was 161 to 162 °C.
Compound `CCC(CC)c1ccc(OC)c2nc(Oc3ccc(Cl)cc3Br)n(C)c12` [Example 146, 2-(2-Bromo-4-chlorophenoxy)-7-(1-ethylpropyl)-4-methoxy-1-methyl-1H-benzimidazole] registered a melting point of 106 to 107 °C.
In turn, `CCCC(CCC)c1ccc(Cl)c2nc(Oc3c(C)cc(Cl)cc3Cl)n(C)c12` [Example 129, 4-Chloro-2-(2,4-dichloro-6-methylphenoxy)-1-methyl-7-(1-propylbutyl)-1H-benzimidazole] had a melting point of 148 to 150 °C.
The same measure, in the same setting: for `CCC(CC)c1ccc(-c2ccco2)c2nc(Oc3ccc(Cl)cc3Br)n(C)c12` [Example 149, 2-(2-Bromo-4-chlorophenoxy)-7-(1-ethylpropyl)-4-(2-furyl)-1-methyl-1H-benzimidazole] the value was 159 to 162 °C.
On to `CCC(CC)c1ccc(Cl)c2nc(Oc3ccc(Cl)cc3Br)n(C)c12` [Example 135, 2-(2-Bromo-4-chlorophenoxy)-4-chloro-7-(1-ethylpropyl)-1-methyl-1H-benzimidazole], for which the melting point lay within 114 to 115 °C.
Still for that read-out and setting: for `CCC(CC)c1ccc(C#N)c2nc(Oc3c(C)cc(Cl)cc3Cl)n(C)c12` [Example 151, 2-(2,4-Dichloro-6-methylphenoxy)-7-(1-ethylpropyl)-1-methyl-1H-benzimidazole-4-carbonitrile] the value was 192 °C.
As for `COc1cc(Br)cc(C)c1Nc1nc2cccc(-n3c(C)ccc3C)c2n1C` [Example 69, N-(4-Bromo-2-methoxy-6-methylphenyl)-7-(2,5-dimethyl-1H-pyrrol-1-yl)-1-methyl-1H-benzimidazol-2-amine], the inhibition at 1 µM at human CRF receptor is greater than 80%.

Broadly, the IC50 is the point on the concentration scale where inhibition reaches its midpoint. The term melting point denotes the temperature, or range, at which the solid turns liquid.

For the origin of these results see US8163935B2, “Fused heterocyclic compounds” (Takeda Pharmaceutical Company Limited, priority 2005, dated 2012).
